ChEMBL document CHEMBL1201862, “PubChem BioAssay data set” (2004)
Active and inactive are the calls of the source.

Columns and labels:
[1] = target: Eukaryotic translation initiation factor 4E (Mus musculus, UniProt P63073); test: blockers of eIF4G binding by eIF4E – biochemical, TR-FRET, dose response (AID 855); format: functional;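 also: potency for disrupting eIF4E binding to eIF4GI seen as loss of FRET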
Cytochrome P450 3A4 = Cytochrome P450 3A4 (Homo sapiens, UniProt P08684); settings: Potency;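 also: confirmatory qHTS run detecting inhibitors and substrates of CYP3A4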
Sequence of Cytochrome P450 3A4 (P08684 whole entry): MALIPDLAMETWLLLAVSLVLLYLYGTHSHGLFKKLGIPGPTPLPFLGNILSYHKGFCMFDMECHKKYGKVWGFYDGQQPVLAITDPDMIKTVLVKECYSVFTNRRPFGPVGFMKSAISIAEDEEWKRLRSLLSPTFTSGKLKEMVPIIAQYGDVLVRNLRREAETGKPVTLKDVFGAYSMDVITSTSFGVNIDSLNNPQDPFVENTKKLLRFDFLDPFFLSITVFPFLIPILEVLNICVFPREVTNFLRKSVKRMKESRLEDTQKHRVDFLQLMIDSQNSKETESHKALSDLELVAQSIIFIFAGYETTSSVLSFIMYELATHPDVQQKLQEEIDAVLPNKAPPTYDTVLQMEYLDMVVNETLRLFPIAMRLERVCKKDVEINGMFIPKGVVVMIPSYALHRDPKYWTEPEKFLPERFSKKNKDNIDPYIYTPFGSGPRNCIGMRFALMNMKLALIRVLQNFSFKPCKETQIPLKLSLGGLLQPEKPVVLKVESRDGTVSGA

[2] = HEK-293T cell viability reduction – luminescence, B-cell screen hits, cytotoxicity control for BCR NF-kB inhibitor project, dose response (AID 489021); format: functional, cell-based;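 also: HEK-293T cells carrying an NF-kB luciferase reporter; cells exposed to compound for about 14 hours before viability readout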
[3] = target: T1, Short transient receptor potential channel 4 (Mus musculus, UniProt Q9QUQ5); test: block of DAMGO-driven TRPC4 calcium entry – cell-based, HEK293 TRPC4/mu-opioid, Fluo-4 calcium, dose response (AID 434942); format: functional;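 also: potency of inhibitors blocking the TRPC4 calcium response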
T1 sequence (Q9QUQ5 whole entry): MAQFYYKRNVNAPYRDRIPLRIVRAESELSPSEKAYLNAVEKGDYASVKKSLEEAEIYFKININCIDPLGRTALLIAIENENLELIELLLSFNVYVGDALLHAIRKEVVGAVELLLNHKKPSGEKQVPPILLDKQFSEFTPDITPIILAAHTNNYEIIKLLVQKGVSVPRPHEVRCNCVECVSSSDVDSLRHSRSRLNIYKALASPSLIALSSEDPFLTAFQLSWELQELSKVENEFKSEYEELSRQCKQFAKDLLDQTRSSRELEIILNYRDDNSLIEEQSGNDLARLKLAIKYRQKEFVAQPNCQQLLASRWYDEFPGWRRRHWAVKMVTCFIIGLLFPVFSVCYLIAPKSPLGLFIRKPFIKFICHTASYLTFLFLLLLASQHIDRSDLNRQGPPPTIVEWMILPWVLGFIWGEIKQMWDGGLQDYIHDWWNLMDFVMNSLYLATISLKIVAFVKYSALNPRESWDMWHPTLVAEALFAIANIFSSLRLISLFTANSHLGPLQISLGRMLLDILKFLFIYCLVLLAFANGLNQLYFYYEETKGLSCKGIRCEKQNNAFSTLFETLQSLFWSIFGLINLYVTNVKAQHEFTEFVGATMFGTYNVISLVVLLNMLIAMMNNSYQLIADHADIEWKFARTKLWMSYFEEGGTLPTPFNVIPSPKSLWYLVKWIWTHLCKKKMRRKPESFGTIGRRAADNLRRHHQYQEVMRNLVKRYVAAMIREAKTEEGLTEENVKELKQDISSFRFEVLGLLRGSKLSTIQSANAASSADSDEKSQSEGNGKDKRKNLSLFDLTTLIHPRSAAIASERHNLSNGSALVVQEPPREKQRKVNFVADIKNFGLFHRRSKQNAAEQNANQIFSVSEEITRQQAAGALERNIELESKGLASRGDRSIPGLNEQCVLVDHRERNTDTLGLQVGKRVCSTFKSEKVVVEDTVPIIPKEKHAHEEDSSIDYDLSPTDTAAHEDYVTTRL

[4] = target: Voltage-dependent T-type calcium channel subunit alpha-1H (Homo sapiens, UniProt O95180); format: functional;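 also: channel activity triggered by adding a high calcium stimulation buffer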
Sequence of Voltage-dependent T-type calcium channel subunit alpha-1H (O95180 whole entry): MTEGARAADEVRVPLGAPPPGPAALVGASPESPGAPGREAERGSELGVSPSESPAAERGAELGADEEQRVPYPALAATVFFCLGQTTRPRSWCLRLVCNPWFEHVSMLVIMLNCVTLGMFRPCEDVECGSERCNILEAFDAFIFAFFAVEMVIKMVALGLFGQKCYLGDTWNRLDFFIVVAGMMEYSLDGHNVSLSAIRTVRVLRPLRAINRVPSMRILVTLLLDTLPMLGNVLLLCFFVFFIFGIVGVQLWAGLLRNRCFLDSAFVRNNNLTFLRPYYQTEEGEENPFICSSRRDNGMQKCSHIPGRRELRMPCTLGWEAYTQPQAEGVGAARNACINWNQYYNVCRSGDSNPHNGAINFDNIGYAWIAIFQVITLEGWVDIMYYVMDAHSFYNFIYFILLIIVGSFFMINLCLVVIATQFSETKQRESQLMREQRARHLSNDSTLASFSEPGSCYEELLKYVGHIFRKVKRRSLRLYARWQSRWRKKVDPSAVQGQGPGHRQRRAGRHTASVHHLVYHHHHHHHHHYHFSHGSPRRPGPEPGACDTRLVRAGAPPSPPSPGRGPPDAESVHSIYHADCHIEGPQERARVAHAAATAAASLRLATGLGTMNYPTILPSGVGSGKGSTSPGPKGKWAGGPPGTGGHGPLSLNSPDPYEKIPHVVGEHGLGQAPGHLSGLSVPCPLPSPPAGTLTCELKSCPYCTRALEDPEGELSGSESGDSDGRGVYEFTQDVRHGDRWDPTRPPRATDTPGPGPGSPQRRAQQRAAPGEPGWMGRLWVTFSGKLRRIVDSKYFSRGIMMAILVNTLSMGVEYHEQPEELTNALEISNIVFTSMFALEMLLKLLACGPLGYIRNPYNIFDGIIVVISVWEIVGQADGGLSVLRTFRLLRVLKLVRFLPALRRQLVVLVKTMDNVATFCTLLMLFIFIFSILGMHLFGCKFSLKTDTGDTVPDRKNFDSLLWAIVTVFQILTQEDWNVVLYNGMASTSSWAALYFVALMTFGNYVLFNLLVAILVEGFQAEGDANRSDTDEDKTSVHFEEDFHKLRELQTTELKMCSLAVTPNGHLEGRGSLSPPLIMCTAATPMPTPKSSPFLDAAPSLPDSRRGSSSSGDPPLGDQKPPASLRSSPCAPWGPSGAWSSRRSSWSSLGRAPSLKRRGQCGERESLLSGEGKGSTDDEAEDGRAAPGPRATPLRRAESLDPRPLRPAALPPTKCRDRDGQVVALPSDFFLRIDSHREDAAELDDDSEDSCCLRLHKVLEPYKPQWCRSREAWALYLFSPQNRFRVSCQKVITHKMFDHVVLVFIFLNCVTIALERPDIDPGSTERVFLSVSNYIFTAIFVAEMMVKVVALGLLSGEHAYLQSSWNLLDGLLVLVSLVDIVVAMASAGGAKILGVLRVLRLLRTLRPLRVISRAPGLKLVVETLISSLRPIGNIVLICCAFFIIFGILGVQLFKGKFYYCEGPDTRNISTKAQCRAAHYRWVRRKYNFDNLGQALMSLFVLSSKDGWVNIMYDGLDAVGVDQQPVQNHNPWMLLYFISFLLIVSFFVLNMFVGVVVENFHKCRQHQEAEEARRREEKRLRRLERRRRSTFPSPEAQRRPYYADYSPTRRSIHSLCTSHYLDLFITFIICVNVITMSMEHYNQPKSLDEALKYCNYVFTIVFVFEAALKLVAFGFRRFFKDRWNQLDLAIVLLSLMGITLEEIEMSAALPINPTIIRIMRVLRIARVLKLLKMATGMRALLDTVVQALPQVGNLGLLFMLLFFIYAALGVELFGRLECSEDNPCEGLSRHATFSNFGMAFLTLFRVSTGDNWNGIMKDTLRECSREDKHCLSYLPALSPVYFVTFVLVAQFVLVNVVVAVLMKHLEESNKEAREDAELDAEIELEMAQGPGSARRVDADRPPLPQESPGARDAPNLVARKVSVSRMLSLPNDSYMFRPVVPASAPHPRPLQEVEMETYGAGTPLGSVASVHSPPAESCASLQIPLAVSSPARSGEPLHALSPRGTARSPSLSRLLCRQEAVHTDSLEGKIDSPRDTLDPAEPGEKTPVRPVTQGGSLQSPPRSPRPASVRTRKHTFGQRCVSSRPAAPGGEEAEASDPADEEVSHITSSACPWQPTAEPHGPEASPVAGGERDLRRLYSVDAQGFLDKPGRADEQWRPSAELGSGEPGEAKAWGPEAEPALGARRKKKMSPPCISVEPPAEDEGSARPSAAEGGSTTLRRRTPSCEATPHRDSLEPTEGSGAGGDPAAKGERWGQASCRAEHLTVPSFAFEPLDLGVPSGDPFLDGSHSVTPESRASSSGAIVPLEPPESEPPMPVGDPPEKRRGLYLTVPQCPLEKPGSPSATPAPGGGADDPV

[5] = viability loss in HEK293 cells – cell-based, plate reader, cherry-picked samples, cytotoxicity control, dose response (AID 743446); format: functional
[6] = NIH3T3 cell viability loss – ATP luminescence, mouse fibroblasts, counter-screen, dose response (AID 2010); format: functional, cell-based;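 also: cells exposed to compound for about 90 hours before reading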
[7] = A549 cell cytotoxicity, dose response, cytotoxicity control, plate reader, cherry-pick, antagonist series (AID 743412); format: functional, cell-based
cells = format: functional
[8] = blockers of bursicon-stimulated LGR2 cAMP reporter – cell-based, HEK293, CRE-luciferase reporter, cherry pick, set 2, dose response (AID 743343); format: functional;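 also: transfected cells were stimulated with diluted bursicon conditioned medium after compound addition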
[9] = Trypanosoma cruzi growth suppression in host cells – NIH3T3 host cells, beta-gal luminescence, confirmation (AID 2044); format: functional, cell-based;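 also: intracellular parasites grown in NIH/3T3 mouse fibroblasts as host cells; luminescent beta-galactosidase reporter signal from transgenic T. cruzi replicating inside host cells; inhibitors lower the luminescence signal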
[10] = Vero E6 cell cytotoxicity, dose response, cytotoxicity control for non-replicating M. tuberculosis project, secondary assay (AID 492998); format: functional, VeroE6; settings: Vero C1008
[11] = toxicity toward HepG2 liver cells – cell-based, plate reader, cherry-pick, antagonist series, cytotoxicity control, dose response (AID 743416); format: functional
[12] = HepG2 cell cytotoxicity, dose response, cytotoxicity control for non-replicating M. tuberculosis project (AID 489018); format: functional; settings: Mycobacterium tuberculosis
[13] = blockade of melanocortin 4 receptor signaling – cell-based, plate reader, cherry pick, counter-screen for LGR2 antagonist project, dose response (AID 743444); format: functional;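 also: transfected HEK 293 cells stimulated with alpha-MSH peptide; potency of inhibitors of the alpha-MSH evoked signal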
[14] = THP-1 cell cytotoxicity, dose response, cytotoxicity control for non-replicating M. tuberculosis project (AID 489025); format: functional
[15] = A cytotoxicity screen of small molecule inhibitors of the PhoP region in Salmonella typhi identified in the primary screen. [Related pubchem assays: 1850, 1864, 1985 ]; format: functional
[16] = loss of viability in HepG2 cells – cell-based, CellTiter-Glo, cherry-picked, cytotoxicity control for Shn3 inhibitor project, dose response (AID 624134); format: functional
[17] = non-specific 3'UTR reporter inhibition in Clone20-Shn3RL – cell-based, Renilla luciferase, cherry-picked, counter-screen for Shn3 inhibitor project, dose response (AID 624133); format: functional
[18] = reduction of Shn3 3'UTR-driven luciferase in osteoblasts – cell-based, Clone20 osteoblasts, firefly luciferase, cherry-picked, dose response (AID 624132); format: functional;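 also: firefly luciferase luminescence from reporter carrying the Shn3 3'UTR in osteoblasts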
[19] = Luminescence Cell-Based Dose Retest to Confirm Inhibitors of Cancer Stem Cells. [Related pubchem assays (depositor defined):AID2717, AID2721]; format: functional; settings: Homo sapiens
[20] = target: Peroxisome proliferator-activated receptor gamma/Nuclear receptor coactivator 2 (Homo sapiens, UniProt P37231); format: functional;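 also: agonist potency for raising coactivator recruitment to the receptor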
[21] = target: Peroxisome proliferator-activated receptor gamma/Nuclear receptor coactivator 3 (Homo sapiens, UniProt P37231); format: functional;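 also: agonist potency for raising coactivator recruitment to the receptor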
[22] = target: Peroxisome proliferator-activated receptor gamma/Nuclear receptor coactivator 1 (Homo sapiens, UniProt P37231); format: functional;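 also: agonist potency as compounds enhance coactivator SRC-1 recruitment to PPARgamma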
Sequence of Peroxisome proliferator-activated receptor gamma/Nuclear receptor coactivator 1 (P37231 whole entry): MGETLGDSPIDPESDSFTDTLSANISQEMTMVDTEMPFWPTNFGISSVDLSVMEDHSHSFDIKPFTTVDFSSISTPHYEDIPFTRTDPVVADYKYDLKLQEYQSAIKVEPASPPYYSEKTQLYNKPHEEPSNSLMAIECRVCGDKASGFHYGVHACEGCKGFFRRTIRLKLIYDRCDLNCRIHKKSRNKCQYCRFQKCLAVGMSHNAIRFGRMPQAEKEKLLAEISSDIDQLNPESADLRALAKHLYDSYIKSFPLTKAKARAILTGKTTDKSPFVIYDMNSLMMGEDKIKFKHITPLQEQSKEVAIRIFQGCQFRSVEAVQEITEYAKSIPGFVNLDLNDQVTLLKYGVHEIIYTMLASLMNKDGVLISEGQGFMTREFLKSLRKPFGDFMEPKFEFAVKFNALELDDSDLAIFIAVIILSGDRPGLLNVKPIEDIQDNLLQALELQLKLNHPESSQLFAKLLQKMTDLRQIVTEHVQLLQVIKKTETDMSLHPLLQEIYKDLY
Sequence of Peroxisome proliferator-activated receptor gamma/Nuclear receptor coactivator 1 (Q15788 whole entry, further chain): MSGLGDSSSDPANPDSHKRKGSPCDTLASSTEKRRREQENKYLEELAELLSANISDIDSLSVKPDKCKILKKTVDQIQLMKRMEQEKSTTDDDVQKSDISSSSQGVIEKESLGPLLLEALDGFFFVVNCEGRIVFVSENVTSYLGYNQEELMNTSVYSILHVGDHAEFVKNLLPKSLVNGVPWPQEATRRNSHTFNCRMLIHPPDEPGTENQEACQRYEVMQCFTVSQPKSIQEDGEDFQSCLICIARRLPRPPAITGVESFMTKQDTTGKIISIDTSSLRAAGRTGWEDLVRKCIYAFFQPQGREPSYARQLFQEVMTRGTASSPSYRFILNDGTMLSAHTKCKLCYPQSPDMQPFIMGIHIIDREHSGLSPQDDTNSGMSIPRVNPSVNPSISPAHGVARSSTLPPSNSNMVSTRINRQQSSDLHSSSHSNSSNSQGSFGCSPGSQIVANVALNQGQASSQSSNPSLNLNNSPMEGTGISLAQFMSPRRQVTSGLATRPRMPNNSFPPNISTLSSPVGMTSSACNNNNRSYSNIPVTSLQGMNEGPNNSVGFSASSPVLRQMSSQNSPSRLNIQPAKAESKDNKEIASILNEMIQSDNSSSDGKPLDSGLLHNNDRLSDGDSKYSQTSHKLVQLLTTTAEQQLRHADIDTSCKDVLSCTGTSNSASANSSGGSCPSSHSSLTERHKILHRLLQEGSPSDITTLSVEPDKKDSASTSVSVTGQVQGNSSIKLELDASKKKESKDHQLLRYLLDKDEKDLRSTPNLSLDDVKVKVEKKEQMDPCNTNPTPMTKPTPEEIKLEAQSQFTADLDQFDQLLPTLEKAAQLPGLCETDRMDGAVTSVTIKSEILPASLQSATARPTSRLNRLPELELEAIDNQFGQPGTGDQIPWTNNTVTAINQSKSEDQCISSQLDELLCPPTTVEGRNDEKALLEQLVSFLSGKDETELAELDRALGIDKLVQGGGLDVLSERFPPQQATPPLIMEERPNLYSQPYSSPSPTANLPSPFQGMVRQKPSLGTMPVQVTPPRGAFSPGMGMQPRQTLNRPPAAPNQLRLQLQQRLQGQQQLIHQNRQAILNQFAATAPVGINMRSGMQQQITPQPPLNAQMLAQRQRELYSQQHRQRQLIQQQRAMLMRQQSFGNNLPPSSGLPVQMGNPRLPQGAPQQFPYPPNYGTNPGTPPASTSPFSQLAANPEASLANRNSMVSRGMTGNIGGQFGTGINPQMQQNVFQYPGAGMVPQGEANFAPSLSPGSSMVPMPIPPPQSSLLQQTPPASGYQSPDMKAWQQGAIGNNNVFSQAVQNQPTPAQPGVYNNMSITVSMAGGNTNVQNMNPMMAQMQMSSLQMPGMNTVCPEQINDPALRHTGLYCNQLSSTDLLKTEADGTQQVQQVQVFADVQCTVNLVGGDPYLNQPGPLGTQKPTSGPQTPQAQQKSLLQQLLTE

[23] = HEK-293T viability loss after treatment – luminescence, T-cell screen hits, cytotoxicity control for TCR NF-kB inhibitor project, dose response (AID 489026); format: functional, cell-based;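 also: cells exposed to compound about 14 hours before the viability readout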
BJ [24] = test: BJ-TERT-LT-ST fibroblast viability loss – cell-based, RAS-independent, luminescence, dose response (AID 1935); format: functional; settings: Homo sapiens;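 also: BJ fibroblasts immortalized with TERT plus LT and ST oncogenes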
[25] = DRD fibroblast viability loss – cell-based, non-viral oncogenic, luminescence, dose response (AID 1934); format: functional; settings: Homo sapiens
BJ [26] = test: BJ-TERT fibroblast viability loss – cell-based, RAS-independent, luminescence, dose response (AID 1933); format: functional; settings: Homo sapiens
BJ [27] = test: cells; format: functional, cell-based; settings: Homo sapiens
INS1 = test: INS-1E survival protection against cytokine death – cell-based, luminescence, retest, dose response (AID 449756); format: functional; settings: Rattus norvegicus;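 also: cell death triggered by IL-1 beta plus TNF-alpha plus IFN-gamma mixture; protective hits raise ATP signal compared with cytokine alone wells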
Cytochrome P450 2C19 = Cytochrome P450 2C19 (Homo sapiens, UniProt P33261); test: Cytochrome panel assay with activity outcomes. Panel member name: p450-cyp2c19 Compounds with AC50 equal or less than 10 uM are considered active; format: functional; settings: read-out: AC50
H4 = test: Luminescence Cell-Based Dose Response HTS to Identify Activators of 5'UTR Stem-Loop Driven Prion Protein mRNA Translation in H4 Neuroglioblastoma Cells. [Related pubchem assays: 1829 (Project Summary), 1814 (Primary HTS)]; format: functional; settings: Homo sapiens

Sequence of Eukaryotic translation initiation factor 4E (P63073 whole entry): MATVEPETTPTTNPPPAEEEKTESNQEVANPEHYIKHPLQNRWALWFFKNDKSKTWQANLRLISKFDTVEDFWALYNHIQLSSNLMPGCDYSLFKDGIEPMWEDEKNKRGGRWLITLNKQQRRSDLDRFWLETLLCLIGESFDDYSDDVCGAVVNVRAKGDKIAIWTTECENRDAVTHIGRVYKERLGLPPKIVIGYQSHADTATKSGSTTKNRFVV

SMILES: CC1=CC2=NC(=O)/C(=C\c3cc(C)n(-c4ccccc4)c3C)C(=N)N2O1
- IC50 [1]: > 64 µM (inactive)

SMILES: Oc1ccc(C2Oc3cc(O)cc(O)c3CC2O)cc1 (centres undefined)
- AC50 (Cytochrome P450 3A4): 12.6 µM (inconclusive)

SMILES: C=CCn1c(S)nnc1-c1ccc2[nH]c(C)c(C)c2c1
- IC50 [1]: > 64 µM (inactive)

SMILES: Cc1ccc(C(=O)CSc2nnc(COc3cccc(C)c3)o2)cc1
- IC50 [2]: > 80 µM (inactive)

SMILES: CC(=O)N1CCN(c2ccccc2NC(=O)c2ccc3ccccc3c2)CC1
- EC50 [3]: 1.5 µM (active)

SMILES: CCC(CC)c1nnc(NC(=O)C2COc3ccccc3O2)s1 (centres undefined)
- EC50 [4]: 3.85 µM (active)

SMILES: Cc1ccc(S(=O)(=O)Nc2c(C)n(C)n(-c3ccccc3)c2=O)cc1C(=O)NCc1ccccn1
- IC50 [1]: > 64 µM (inactive)

SMILES: Cc1cc([N+](=O)[O-])ccc1NC(=O)Nc1ccc(F)cc1F
- AC50 [5]: 22.8 µM (active)
- EC50 [6]: > 60 µM (not active)
- AC50 [7]: 19.6 µM (active)
- IC50 (cells): 46.7 µM (active)
- AC50 [8]: 30.9 µM (active)
- EC50 [9]: 4.36 µM (active)
- CC50 [10]: > 20 µM (active)
- AC50 [11]: 18.8 µM (active)
- CC50 [12]: > 20 µM (active)
- AC50 [13]: 30.1 µM (active)
- CC50 [14]: 20.3 µM (active)

SMILES: CCOC(=O)C1(CCOc2ccccc2)CCN(Cc2cccn2-c2ncccn2)CC1
- EC50 [3]: 1.88 µM (active)

SMILES: c1ccc(-c2nc(NCc3ccco3)c3ccccc3n2)cc1
- EC50 [3]: 3.76 µM (active)

SMILES: Cn1c(N)c(C(=O)COC(=O)c2cc(-c3ccccc3)nc3ccccc23)c(=O)n(Cc2ccccc2)c1=O
- AC50 (Cytochrome P450 3A4): 12.6 µM (inconclusive)

SMILES: COc1ccc(S(=O)(=O)N[C@H](C(=O)N2CC[C@@]3(O)CCCC[C@H]3C2)c2ccccc2)cc1
- EC50 [15]: > 50 µM (active)

SMILES: COc1ccc2ccccc2c1C1CC(=O)N2CN(C)CSC2=C1C#N (centres undefined)
- IC50 [1]: > 64 µM (inactive)

SMILES: CCOc1ccc2[nH]c3c(N4CCN(c5ccccn5)CC4)ncnc3c2c1
- EC50 [3]: 1.19 µM (active)

SMILES: Cn1cnnc1SCC(=O)Nc1ccc2nc(SCc3ccccc3)sc2c1
- EC50 [15]: > 50 µM (active)

SMILES: COc1ccc(/C=C2\Sc3ccc(C(=O)NCCN4CCCCCC4)cc3N(C)C2=O)cc1
- IC50 (cells): 19 µM (active)
- CC50 [10]: > 20 µM (active)
- CC50 [12]: 14.3 µM (active)
- CC50 [14]: 17.9 µM (active)

SMILES: CC(NCc1ccc(OCc2ccc(Cl)cc2)cc1)C(O)c1ccccc1 (centres undefined)
- AC50 [16]: 14.6 µM (active)
- IC50 (cells): 13.3 µM (active)
- CC50 [10]: 14.6 µM (active)
- AC50 [17]: 21.2 µM (active)
- AC50 [18]: 10.9 µM (active)
- CC50 [12]: 15.5 µM (active)
- CC50 [14]: 9.8 µM (active)
- AC50 [19]: 3.57 µM (active)

SMILES: COc1c(OC)c(O)c2c(=O)cc(-c3c(O)cccc3O)oc2c1OC
- EC50 [20]: > 79.4 µM (not active)
- EC50 [21]: > 79.4 µM (not active)
- EC50 [22]: > 79.4 µM (not active)

SMILES: COc1cccc(Cn2nnc(C(=O)Nc3cc(Cl)ccc3OC)c2N)c1
- IC50 [2]: > 80 µM (inactive)
- AC50 [19]: 0.498 µM (active)

SMILES: COc1ccccc1N1CCN(C(=O)C2c3ccccc3Oc3ccccc32)CC1
- IC50 [23]: > 80 µM (inactive)
- EC50 (BJ [24]): 1.65 µM (inconclusive)
- EC50 [25]: 2.06 µM (inconclusive)
- EC50 (BJ [26]): 2.13 µM (active)
- EC50 [4]: 3.44 µM (active)
- EC50 (BJ [27]): 40.2 µM (inconclusive)

SMILES: CCN(Cc1ccccc1)C(c1ccc(C(F)(F)F)cc1)c1nnnn1C(C)(C)C (centres undefined)
- EC50 [4]: 11.8 µM (active)
- AC50 (INS1): 6.45 µM (active)

SMILES: Cc1ccc(N/N=C2/C(=N)N(c3ccccc3)NC2=O)cc1
- EC50 [20]: > 79.4 µM (not active)
- AC50 (Cytochrome P450 2C19): 5.01 µM (inconclusive)
- EC50 (H4): 10.6 µM (active)
- EC50 [21]: > 79.4 µM (not active)
- EC50 [22]: > 79.4 µM (not active)

SMILES: COC(=O)CC1[C@@]2(C)C[C@@]34OC5(C)OC6(CC[C@@]7(C)C(c8ccoc8)OC(=O)C(C(C)=O)C7[C@]6(O5)C(O)[C@@]3(O)C2O)[C@]14C (some centres undefined)
- AC50 (Cytochrome P450 3A4): 39.8 µM (inconclusive)

SMILES: CCCCCCN(C(=O)CCCCCN1C(=O)NC(c2ccc(-c3ccccc3)cc2)C(C(=O)OCc2ccccc2)=C1C)C(C(=O)NCCCC)c1ccccn1 (centres undefined)
- AC50 (Cytochrome P450 3A4): 1 µM (inconclusive)

SMILES: O=C(N/N=C/c1ccc(Cl)cc1Cl)c1ccc(-n2cnnn2)cc1
- IC50 [2]: > 80 µM (inactive)

SMILES: CCN1CCN(C(=O)Nc2ccc(Cc3ccc(NC(=O)N4CCN(CC)CC4)cc3)cc2)CC1
- EC50 [15]: > 50 µM (active)
